What was measured:
[1] = test system: HCT116 (MTAP del) cell line; experiment: Cell proliferation inhibition in MTAP-deficient cancer cells, WST-1 assay; format: cell-based; settings: Homo sapiens, HCT-116, 120 hours of drug treatment, maximum concentration 10 µM, read-out: HCT116 MTAP^-/- (IC50, cell proliferation inhibited by 50%)
Method: (§1) The HCT116 (MTAP del) cell line, which is a colorectal cancer cell line with deletion of MTAP gene, was treated with a compound according to an embodiment of the present application as a MAT2A inhibitor, and after culturing for 120 hours, the change in the number of cells was measured with a WST-1 assay reagent. The WST-1 assay is an assay that measures the number of cells by measuring the generation of a chromogenic substance called formazan from tetrazolium salts by intracellular mitochondrial dehydrogenase. In addition, as a control group, a wild-type colorectal cancer HCT116 (MTAP WT) cell line containing the MTAP gene was used to perform the experiment in the same manner as the experimental group.
(§2) Cell lines and reagents: HCT116 (MTAP WT (catalog number HD PAR-034), MTAP del (catalog number HD R02-033)) cell lines were purchased from Horizon Discovery (USA), and RPMI1640 medium (catalog number 22400-093), FBS (Fetal Bovine serum, catalog number 16000044), and Penicillin/Streptomycin (catalog number 15140-122) were purchased from GIBCO (USA). WST-1 (catalog number EZ-BULK150) was purchased from Dogen (Korea).
(§3) Experimental procedure: HCT116 (MTAP WT, MTAP del) cell lines were dispensed into a 96-well plate at a concentration of 1,000 cells/well in RPMI1640 culture medium containing 10% FBS and 1% Penicillin/Streptomycin, and allowed to attach for 24 hours. When the cells were attached to the plate, the drug was diluted 4-fold from a maximum concentration of 10 µM and treated on the cells. After 120 hours of drug treatment, 20 µL of WST-1 solution was treated for 2 hours, and absorbance at 450 nm was measured using SpectraMax M4 (Molecular Devices). Data analysis was calculated by taking the DMSO control group value as 100%. For the IC50 value, the concentration at which cell proliferation is inhibited by 50% was calculated through interpolation using a 4-parameter fit of the dose-response curve using the GraphPad Prism 8.4.3 program. The cancer cell proliferation inhibitory ability and selectivity in MTAP-deficient cancer cells of the compounds according to an embodiment of the present application are described in Table 3 (+++: 1 to 100 nM, ++: more than 100 to 1,000 nM, +: more than 1 to 10 µM, -: more than 10 µM).

[2] = test system: HCT116 (MTAP WT) cell line; experiment: Cell proliferation inhibition in wild-type control cells, WST-1 assay; format: cell-based; settings: Homo sapiens, HCT-116, 120 hours of drug treatment, maximum concentration 10 µM, read-out: HCT116 WT (IC50, cell proliferation inhibited by 50%)
Method: as §1, §2, §3

MAT2A = molecular target: T1, MAT2A (Homo sapiens, UniProt P31153); experiment: MAT2A inhibitory activity, colorimetric phosphate detection (PiColorLock) enzyme assay; format: biochemical; settings: Test Condition 1 or 2 (not stated which per compound); absorbance at 630 nm
T1 construct: purchased BPS Bioscience (USA) 71401
T1 sequence (P31153 whole entry): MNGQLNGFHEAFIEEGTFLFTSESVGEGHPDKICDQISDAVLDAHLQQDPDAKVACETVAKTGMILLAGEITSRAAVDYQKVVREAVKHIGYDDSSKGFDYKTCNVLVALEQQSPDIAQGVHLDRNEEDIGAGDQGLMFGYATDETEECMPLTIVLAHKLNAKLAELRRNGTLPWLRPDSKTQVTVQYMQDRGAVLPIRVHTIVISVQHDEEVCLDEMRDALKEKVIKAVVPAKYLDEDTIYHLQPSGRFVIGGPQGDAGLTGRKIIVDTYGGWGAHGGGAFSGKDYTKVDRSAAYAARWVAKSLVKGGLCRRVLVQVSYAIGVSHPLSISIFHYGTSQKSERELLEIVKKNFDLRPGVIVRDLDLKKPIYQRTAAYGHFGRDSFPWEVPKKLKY
Method: In vitro assay: Methionine and adenosine triphosphate (ATP) are converted into S-adenosylmethionine (SAM) and inorganic phosphate (pi) via the catalytic action of methionine adenosyltransferase 2A (MAT2A). The produced pi is detected by the PiColorLock™ Phosphate Detection Reagent, which is a colorimetric assay, and the activity of MAT2A can be evaluated according to the amount of pi generated during the enzyme reaction. Each compound was evaluated under Test Condition 1 or 2 as described below.
• Concentration of MAT2A inhibitor: maximum concentration of 50 µM, 5-fold dilution (7 groups in total) • MAT2A concentration: 12 ng/µL • ATP and Met concentration: 100 µM, 80 µM
• Concentration of MAT2A inhibitor: maximum concentration of 1 µM, 3-fold dilution (7 groups in total) • MAT2A concentration: 4 ng/µL • ATP and Met concentration: 300 µM, 150 µM • Reagents: Methionine (catalog number M5308) and ATP (catalog number A2383) were purchased from Sigma-Aldrich (USA). MAT2A (catalog number 71401) was purchased from BPS Bioscience (USA), and PiColorLock™ Phosphate Detection Reagent (catalog number 303-0030) was purchased from Novus (USA).
Assay buffer composition: 50 mM Tris-HCl pH 8.0, 50 mM KCI, 15 mM MgCl2, 0.3 mM EDTA, 0.005 % (w/v) BSA
Experimental procedure: Each compound was diluted 5-fold or 3-fold based on the maximum concentration (5 mM or 1 mM or 0.1 mM) using DMSO. The diluted compounds were diluted 20-fold using assay buffer, and then mixed at a volume ratio of 1:2 with MAT2A (30 ng/µL or 10 ng/µL) diluted with assay buffer and treated for 30 minutes at room temperature. The negative control group is a group untreated with both the MAT2A enzyme and the compound according to an embodiment of the present application, and the positive control group is a group treated only with the MAT2A enzyme and untreated with the compound according to an embodiment of the present application.
In each well of a 384-well plate, 30 µL of the mixed solution and 20 µL of a 1:1 mixed solution of ATP (0.5 mM or 1.5 mM) and Met (0.4 mM or 0.75 mM) were mixed and then treated for 1 hour at room temperature. After the enzyme reaction, 13 µL of a 100:1 mixed solution of PiColorLockTM and Accelerator was treated in each well and reacted for 5 minutes at room temperature. After treating 5 µL of Stabilizer in each well and reacting for 25 minutes at room temperature, the absorbance at 630 nm was measured using SpectraMax M4 (Molecular Devices, USA) to calculate the IC50 value of the compound.
Analysis method: The enzyme activity (%) of each experimental group was calculated as {(average O.D. of compound-treated group - average O.D. of negative control group)/(average O.D. of positive control group - average O.D. of negative control group)} * 100. After preparing a dose-response curve (4-parameter) using the enzyme activity according to the treatment concentration of each compound in GraphPad Prism 9, the 50 % of enzyme inhibitory activity value (IC50) was calculated through non-linear regression analysis. The IC50 results measured for the MAT2A activity inhibitory ability of the compounds according to an embodiment of the present application are shown in Table 2 (+++: more than 1 to 100 nM, ++: more than 100 to 1,000 nM, +: more than 1,000 to 10,000 nM, -: more than 10,000 nM).

Row | Structure (SMILES) | IC50 [1] [nM] | IC50 [2] [µM] | IC50 (MAT2A) [nM]
1 | CC(=O)c1ccc2c(c1)n(-c1ccccc1C)c(=O)c1nccn12 [Example 24, 7-acetyl-5-(o-tolyl)imidazo[1,2-a]quinoxalin-4(5H)-one] | > 10000 | > 10 | 100 to 1000
2 | Cc1ccccc1-n1c(=O)c2nccn2c2ccc(I)cc21 [Example 25, 7-Iodo-5-(o-tolyl)imidazo[1,2-a]quinoxalin-4(5H)-one] | 1 to 100 | 0.1 to 1 | 1 to 100
3 | Cc1ccccc1-n1c(=O)c2nccn2c2ccc(C(F)(F)F)cc21 [Example 26, 5-(o-tolyl)-7-(trifluoromethyl)imidazo[1,2-a]quinoxalin-4(5H)-one] | 1 to 100 | > 10 | 1 to 100
4 | Cc1c(F)cccc1-n1c(=O)c2nccn2c2ccc(C#N)cc21 [Example 27, 5-(3-fluoro-2-methylphenyl)-4-oxo-4,5-dihydroimidazo[1,2-a]quinoxalin-7-carbonitrile] | 100 to 1000 | > 10 | 100 to 1000
5 | Cc1ccccc1-n1c(=O)c2nccn2c2ccc(OCC(F)(F)F)cc21 [Example 28, 5-(o-tolyl)-7-(2,2,2-trifluoroethoxy)imidazo[1,2-a]quinoxalin-4(5H)-one] | > 10000 | > 10 | > 10000
6 | CCOc1ccc2c(c1)n(-c1ccccc1C)c(=O)c1nccn12 [Example 30, 7-ethoxy-5-(o-tolyl)imidazo[1,2-a]quinoxalin-4(5H)-one] | > 10000 | > 10 | > 10000
7 | Cc1ccccc1-n1c(=O)c2nccn2c2ccc(Br)cc21 [Example 32, 7-bromo-5-(o-tolyl)imidazo[1,2-a]quinoxalin-4(5H)-one] | 1 to 100 | 1 to 10 | 1 to 100
8 | Cc1ncccc1-n1c(=O)c2nccn2c2ccc(Cl)cc21 [Example 33, 7-chloro-5-(2-methylpyridin-3-yl)imidazo[1,2-a]quinoxalin-4(5H)-one] | 1 to 100 | 0.1 to 1 | 1 to 100
9 | Cc1ncccc1-n1c(=O)c2ncc(C)n2c2ccc(Cl)cc21 [Example 34, 7-chloro-1-methyl-5-(2-methylpyridin-3-yl)imidazo[1,2-a]quinoxalin-4(5H)-one] | 1 to 100 | 0.1 to 1 | 1 to 100
10 | Cc1ccccc1-n1c(=O)c2nccn2c2ccc(Cl)nc21 [Example 35, 7-chloro-5-(o-tolyl)imidazo[1,2-a]pyrido[2,3-e]pyrazin-4(5H)-one] | 100 to 1000 | > 10 | 100 to 1000
11 | Cc1ccc2c(n1)n(-c1ccccc1C)c(=O)c1nccn12 [Example 36, 7-methyl-5-(o-tolyl)imidazo[1,2-a]pyrido[2,3-e]pyrazin-4(5H)-one] | 100 to 1000 | > 10 | 100 to 1000
12 | COc1ccccc1-n1c(=O)c2nccn2c2ccc(Cl)cc21 [Example 37, 7-chloro-5-(2-methoxyphenyl)imidazo[1,2-a]quinoxalin-4(5H)-one] | 100 to 1000 | > 10 | 100 to 1000
13 | O=c1c2nccn2c2ccc(Cl)cc2n1-c1ccccc1Br [Example 38, 5-(2-bromophenyl)-7-chloroimidazo[1,2-a]quinoxalin-4(5H)-one] | 1 to 100 | > 10 | 100 to 1000
14 | Cc1cccc(-n2c(=O)c3nccn3c3ccc(Cl)cc32)c1 [Example 39, 7-chloro-5-(m-tolyl)imidazo[1,2-a]quinoxalin-4(5H)-one] | 100 to 1000 | > 10 | 100 to 1000
15 | O=c1c2nccn2c2ccc(Cl)cc2n1-c1cccc(F)c1 [Example 40, 7-chloro-5-(3-fluorophenyl)imidazo[1,2-a]quinoxalin-4(5H)-one] | 100 to 1000 | > 10 | 100 to 1000
16 | Cc1cn2c(n1)c(=O)n(-c1cccnc1C)c1cc(Cl)ccc12 [Example 45, 7-chloro-2-methyl-5-(2-methylpyridin-3-yl)imidazo[1,2-a]quinoxalin-4(5H)-one] | 1 to 100 | 0.1 to 1 | 1 to 100
17 | Cc1ccccc1-n1c(=O)c2nccn2c2ccc(C(F)F)nc21 [Example 46, 7-(difluoromethyl)-5-(o-tolyl)imidazo[1,2-a]pyrido[2,3-e]pyrazin-4(5H)-one] | 100 to 1000 | > 10 | 100 to 1000
18 | Cc1ccccc1-n1c(=O)c2nccn2c2ccc(C(F)(F)F)nc21 [Example 49, 5-(o-tolyl)-7-(trifluoromethyl)imidazo[1,2-a]pyrido[2,3-e]pyrazin-4(5H)-one] | 100 to 1000 | > 10 | 100 to 1000
19 | Cc1cccc(F)c1-n1c(=O)c2nccn2c2ccc(Cl)cc21 [Example 52, 7-chloro-5-(2-fluoro-6-methylphenyl)imidazo[1,2-a]quinoxalin-4(5H)-one] | 1000 to 10000 | > 10 | 100 to 1000
20 | O=c1c2nccn2c2ccc(Cl)cc2n1-c1cccnc1Cl [Example 54, 7-chloro-5-(2-chloropyridin-3-yl)imidazo[1,2-a]quinoxalin-4(5H)-one] | 1 to 100 | 0.1 to 1 | 1 to 100
21 | Cc1cn2c(n1)c(=O)n(-c1cccnc1C)c1cc(C(F)(F)F)ccc12 [Example 55, 2-methyl-5-(2-methylpyridin-3-yl)-7-(trifluoromethyl)imidazo[1,2-a]quinoxalin-4(5H)-one] | 1 to 100 | 1 to 10 | 1 to 100
22 | Cc1ncccc1-n1c(=O)c2nccn2c2ccc(C(F)(F)F)cc21 [Example 56, 5-(2-methylpyridin-3-yl)-7-(trifluoromethyl)imidazo[1,2-a]quinoxalin-4(5H)-one] | 1 to 100 | 1 to 10 | 100 to 1000
23 | Cc1ncccc1-n1c(=O)c2ncc(Br)n2c2ccc(C(F)(F)F)cc21 [Example 57, 1-bromo-5-(2-methylpyridin-3-yl)-7-(trifluoromethyl)imidazo[1,2-a]quinoxalin-4(5H)-one] | 1 to 100 | 0.1 to 1 | 100 to 1000

Source: EP4759814A1, “TRICYCLIC COMPOUND AND USE THEREOF AS MAT2A INHIBITOR” (SK Biopharmaceuticals Co., Ltd., priority 2023, dated 2025)
